Data published in the supplement of paper PMC10883282.

Experiments:
Experiment in all cases: relative viability vs DMSO control (72 h) (fraction); higher = more viable cells
[1] = test system: A204
Procedure, shortened: (§1)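 Plates held 72 h at 37 °C and 5% CO2 contained sarcoma cell lines seeded in 384-well format to reach 80–90% confluence, plus 2.5 µl of serially diluted compound added after 24 h. Source plate concentrations ran from 10 mM to 0.0002 mM, with 0.1% DMSO as vehicle and a 5 µM positive control. Percent growth from ATPLite readings, averaged over up to triplicate wells, gave relative viability. Values were rescaled with 1 as full and 0 as none.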

[2] = test system: G401
Procedure, shortened: as §1

[3] = test system: HS729
Procedure, shortened: as §1

[4] = test system: KHOS-240S
Procedure, shortened: as §1

[5] = test system: MES-SA
Procedure, shortened: as §1

[6] = test system: SK-ES-1
Procedure, shortened: as §1

[7] = test system: SK-LMS-1
Procedure, shortened: as §1

[8] = test system: SW1353
Procedure, shortened: as §1

[9] = test system: SW684
Procedure, shortened: as §1

[10] = test system: SW872
Procedure, shortened: as §1

[11] = test system: SW982
Procedure, shortened: as §1

[12] = test system: SYO-1
Procedure, shortened: as §1

C[C@H](Nc1ncnc2nc[nH]c12)c1cc2cccc(Cl)c2c(=O)n1-c1ccccc1 [Duvelisib]
Conditions | relative viability
[1], 0.00017 µM | 1.1
[1], 0.00051 µM | 1.09
[1], 0.00152 µM | 1.07
[1], 0.00457 µM | 1.096
[1], 0.01372 µM | 1.08
[1], 0.04115 µM | 1.06
[1], 0.1235 µM | 1.01
[1], 0.3704 µM | 0.908
[1], 1.111 µM | 0.761
[1], 3.333 µM | 0.555
[1], 10 µM | 0.445
[2], 0.00017 µM | 1.07
[2], 0.00051 µM | 1.03
[2], 0.00152 µM | 1.05
[2], 0.00457 µM | 1.017
[2], 0.01372 µM | 0.987
[2], 0.04115 µM | 0.983
[2], 0.1235 µM | 0.966
[2], 0.3704 µM | 0.9339
[2], 1.111 µM | 0.862
[2], 3.333 µM | 0.763
[2], 10 µM | 0.593
[3], 0.00017 µM | 1.06
[3], 0.00051 µM | 1.09
[3], 0.00152 µM | 1.03
[3], 0.00457 µM | 1.03
[3], 0.01372 µM | 1
[3], 0.04115 µM | 0.987
[3], 0.1235 µM | 1.02
[3], 0.3704 µM | 0.891
[3], 1.111 µM | 0.863
[3], 3.333 µM | 0.726
[3], 10 µM | 0.606
[4], 0.00017 µM | 1.05
[4], 0.00051 µM | 1.11
[4], 0.00152 µM | 1.08
[4], 0.00457 µM | 1.09
[4], 0.01372 µM | 1.06
[4], 0.04115 µM | 1.04
[4], 0.1235 µM | 1.05
[4], 0.3704 µM | 1.02
[4], 1.111 µM | 0.952
[4], 3.333 µM | 0.9
[4], 10 µM | 0.777
[5], 0.00017 µM | 0.98
[5], 0.00051 µM | 0.961
[5], 0.00152 µM | 0.964
[5], 0.00457 µM | 0.944
[5], 0.01372 µM | 0.906
[5], 0.04115 µM | 0.9422
[5], 0.1235 µM | 0.923
[5], 0.3704 µM | 0.849
[5], 1.111 µM | 0.77
[5], 3.333 µM | 0.631
[5], 10 µM | 0.453
[6], 0.00017 µM | 1.09
[6], 0.00051 µM | 1.07
[6], 0.00152 µM | 1.06
[6], 0.00457 µM | 1.05
[6], 0.01372 µM | 1.02
[6], 0.04115 µM | 0.968
[6], 0.1235 µM | 0.99
[6], 0.3704 µM | 0.96
[6], 1.111 µM | 0.8914
[6], 3.333 µM | 0.768
[6], 10 µM | 0.564
[7], 0.00017 µM | 1.05
[7], 0.00051 µM | 1.04
[7], 0.00152 µM | 1.08
[7], 0.00457 µM | 1.05
[7], 0.01372 µM | 1.03
[7], 0.04115 µM | 0.9363
[7], 0.1235 µM | 0.91
[7], 0.3704 µM | 0.811
[7], 1.111 µM | 0.688
[7], 3.333 µM | 0.572
[7], 10 µM | 0.438
[8], 0.00017 µM | 1.074
[8], 0.00051 µM | 1.06
[8], 0.00152 µM | 1.03
[8], 0.00457 µM | 1.02
[8], 0.01372 µM | 1.02
[8], 0.04115 µM | 0.996
[8], 0.1235 µM | 0.915
[8], 0.3704 µM | 0.885
[8], 1.111 µM | 0.786
[8], 3.333 µM | 0.761
[8], 10 µM | 0.614
[9], 0.00017 µM | 1.15
[9], 0.00051 µM | 1.11
[9], 0.00152 µM | 1.09
[9], 0.00457 µM | 0.899
[9], 0.01372 µM | 0.838
[9], 0.04115 µM | 0.722
[9], 0.1235 µM | 0.683
[9], 0.3704 µM | 0.633
[9], 1.111 µM | 0.543
[9], 3.333 µM | 0.501
[9], 10 µM | 0.453
[10], 0.00017 µM | 1.11
[10], 0.00051 µM | 1.1
[10], 0.00152 µM | 1.08
[10], 0.00457 µM | 1.11
[10], 0.01372 µM | 1.08
[10], 0.04115 µM | 1.03
[10], 0.1235 µM | 1.02
[10], 0.3704 µM | 0.897
[10], 1.111 µM | 0.813
[10], 3.333 µM | 0.666
[10], 10 µM | 0.519
[11], 0.00017 µM | 1.04
[11], 0.00051 µM | 1.08
[11], 0.00152 µM | 1.09
[11], 0.00457 µM | 1.06
[11], 0.01372 µM | 1.08
[11], 0.04115 µM | 1.04
[11], 0.1235 µM | 1
[11], 0.3704 µM | 0.952
[11], 1.111 µM | 0.891
[11], 3.333 µM | 0.771
[11], 10 µM | 0.623
[12], 0.00017 µM | 1.03
[12], 0.00051 µM | 1.01
[12], 0.00152 µM | 0.994
[12], 0.00457 µM | 0.995
[12], 0.01372 µM | 0.9906
[12], 0.04115 µM | 1.01
[12], 0.1235 µM | 0.925
[12], 0.3704 µM | 0.911
[12], 1.111 µM | 0.841
[12], 3.333 µM | 0.797
[12], 10 µM | 0.688
